Consider one compound from patent publication US10987350B2, “Method for treating post-traumatic stress disorder” (priority 2017, dated 2021).

The test system of data set [1] is combat veterans diagnosed with post-traumatic stress disorder (PTSD). The settings on record: 18 combat veterans with PTSD; 1 mg twice a day up to 200 mg twice a day; cited from earlier work.
Data set [2] concerns respiratory depression produced by opiate overdose. The following applies: cited from earlier work.
A further data set has as its system liver. The following applies: compared with naltrexone; cited from earlier work.
For data set [3] the following is noted: compared with naltrexone; cited from earlier work.
Data set [4] has as its system patient diagnosed with post-traumatic stress disorder (PTSD). The data set can be described thus: higher dose titration schedule of nalmefene in patients diagnosed with PTSD. It counts as in vivo, human. On the procedure:
One object of the subject invention is to provide improved benefit to patients diagnosed with PTSD, by employing a higher dose titration schedule for the administration of nalmefene. In accordance with the nalmefene dosing titration schedule of the subject invention, nalmefene is administered at a higher initial dose than the dosing schedule published in the pilot study, and administering nalmefene at the same, higher dose increments at regular intervals described above. Specifically, the subject invention comprises administering nalmefene orally to a PTSD patient at an initial dose of 100 milligrams per day, preferably using 50 milligram doses, twice a day, with increases every 3-4 days of 100 mg per day (50 milligrams twice a day), not to exceed 1000 mg per day (500 mg twice a day).
The subject invention comprises administering, on a dosing titration schedule, nalmefene, to a patient diagnosed with post-traumatic stress disorder (PTSD), using • a starting dose of 100 mg per day, preferably in divided doses of 50 mg twice per day; and • increasing the dose by 100-150 mg per day, every 2-5 days, up to a maximum daily dose of 1000 mg, per day.
Each increase is preferably 100 mg per day, at a divided dose of 50 mg twice per day.
An optimum dose of nalmefene, wherein PTSD symptoms are reduced or reversed, can be achieved within 2-3 weeks for individuals diagnosed with PTSD. The reduced or reversed. PTSD symptoms are based on both clinical observation of the patient and on reporting of reduced or reversed symptoms by the patient.

Setting [5] is: dosing administration schedule of the invention.

`C=C1CC[C@@]2(O)[C@H]3Cc4ccc(O)c5c4[C@@]2(CCN3CC2CC2)[C@H]1O5` [nalmefene]: in data set [1], the “core symptoms of PTSD (nightmares, intrusive thoughts, flashbacks, avoidance, dissociative amnesia, mistrust, hyper arousal)” value is reported as “significantly improve all core symptoms of PTSD”; the “symptom of emotional numbness” value was “significantly reduce, and in some cases remit”. Besides, in data set [2] (intravenous doses greater than 1.5 mg), the “additional benefit in opiate overdose at higher doses” value is reported as “do not appear to give any greater benefit”. Further, the “counteracting respiratory depression produced by opiate overdose” value in data set [2] (intravenous doses) is “effective”. Besides, in the data set on liver, the dose-dependent liver toxicity result was “no observed dose-dependent liver toxicity”. Further, in data set [3], the “half-life relative to naltrexone” value is listed as “longer half-life”. Besides, the “adverse reaction with large dose increments” value in data set [4] (dose increments significantly greater than 50 milligrams twice a day) is “frequent and intense mood swings”. Also, in data set [4] (setting [5]), the “occurrence of fluctuating mood states (anxiety, hostility and rage, depression, paranoia) with dose increases” value is recorded as “successful in avoiding the occurrence of fluctuating mood states”; the “time to stabilization of mental state of the PTSD patient” value is “stabilized in a much briefer period of time”. Besides, the “emergence of opiate withdrawal symptoms” value in data set [4] (higher dose of at least 50 mgs twice a day) is recorded as “unexpectedly bypassed the emergence of opiate withdrawal symptoms”. In addition, the “time to achieve optimum dose, wherein PTSD symptoms are reduced or reversed” value in data set [4] (higher dose titration schedule, clinical observation and patient reporting) is recorded as 2-3 weeks.
